Measurements reported in PMC3950631, “L-Phenylalanine Transport in Saccharomyces cerevisiae: Participation of GAP1, BAP2, and AGP1” (Journal of Amino Acids, 2014).
Where two headings read alike, the source gives them in different places.

Key:
Assay in all cases: inhibition of […] L-[…]-phenylalanine uptake into intact yeast cells
Type in all cases: cell-based
Gap1p = molecular target: T1, Gap1p (Saccharomyces cerevisiae, UniProt P19145)
T1 construct: gene GAP1; native chromosomal permease in intact yeast cells, full length, plasma membrane; assigned by gene disruption and growth medium
T1 sequence (P19145 1-602): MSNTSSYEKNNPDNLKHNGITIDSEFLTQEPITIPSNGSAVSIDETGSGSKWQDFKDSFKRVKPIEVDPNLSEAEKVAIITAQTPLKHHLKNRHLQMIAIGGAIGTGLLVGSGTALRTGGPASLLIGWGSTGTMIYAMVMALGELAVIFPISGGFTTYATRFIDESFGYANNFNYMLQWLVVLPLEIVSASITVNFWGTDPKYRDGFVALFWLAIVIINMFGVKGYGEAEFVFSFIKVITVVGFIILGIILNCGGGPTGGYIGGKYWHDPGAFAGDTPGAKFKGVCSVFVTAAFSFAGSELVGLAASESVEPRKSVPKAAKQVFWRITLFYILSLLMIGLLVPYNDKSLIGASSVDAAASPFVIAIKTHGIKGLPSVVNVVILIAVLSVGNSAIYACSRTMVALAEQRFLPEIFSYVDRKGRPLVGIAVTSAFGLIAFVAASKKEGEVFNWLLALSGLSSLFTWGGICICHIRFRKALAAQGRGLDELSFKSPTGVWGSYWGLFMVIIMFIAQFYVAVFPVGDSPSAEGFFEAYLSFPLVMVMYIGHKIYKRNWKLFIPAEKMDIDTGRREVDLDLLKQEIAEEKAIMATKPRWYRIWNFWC

Agp1p = molecular target: T2, Agp1p (Saccharomyces cerevisiae, UniProt P25376)
T2 construct: gene AGP1; native chromosomal permease in intact yeast cells, full length, plasma membrane; assigned by gene disruption
T2 sequence (P25376 1-633): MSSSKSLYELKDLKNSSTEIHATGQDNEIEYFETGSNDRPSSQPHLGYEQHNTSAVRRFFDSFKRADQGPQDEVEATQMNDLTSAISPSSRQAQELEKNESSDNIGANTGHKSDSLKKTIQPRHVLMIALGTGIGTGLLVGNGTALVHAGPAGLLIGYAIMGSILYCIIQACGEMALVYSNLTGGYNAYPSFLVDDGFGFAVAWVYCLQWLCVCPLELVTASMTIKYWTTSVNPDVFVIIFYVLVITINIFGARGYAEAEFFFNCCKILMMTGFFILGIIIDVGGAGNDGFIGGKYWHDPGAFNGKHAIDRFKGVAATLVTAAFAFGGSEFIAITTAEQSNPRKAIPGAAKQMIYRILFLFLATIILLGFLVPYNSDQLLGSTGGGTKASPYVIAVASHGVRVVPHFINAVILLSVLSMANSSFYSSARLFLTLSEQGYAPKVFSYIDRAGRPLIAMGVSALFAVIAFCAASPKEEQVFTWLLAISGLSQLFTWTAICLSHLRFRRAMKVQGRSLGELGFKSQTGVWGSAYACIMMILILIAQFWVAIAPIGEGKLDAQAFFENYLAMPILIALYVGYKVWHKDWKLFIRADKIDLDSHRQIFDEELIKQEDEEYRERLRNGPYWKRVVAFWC

Bap2p = molecular target: T3, Bap2p (Saccharomyces cerevisiae, UniProt P38084); settings: read-out: Percentage inhibition / Y294Δagp1
T3 construct: gene BAP2; native chromosomal permease in intact yeast cells, full length, plasma membrane; assigned by gene disruption
T3 sequence (P38084 1-609): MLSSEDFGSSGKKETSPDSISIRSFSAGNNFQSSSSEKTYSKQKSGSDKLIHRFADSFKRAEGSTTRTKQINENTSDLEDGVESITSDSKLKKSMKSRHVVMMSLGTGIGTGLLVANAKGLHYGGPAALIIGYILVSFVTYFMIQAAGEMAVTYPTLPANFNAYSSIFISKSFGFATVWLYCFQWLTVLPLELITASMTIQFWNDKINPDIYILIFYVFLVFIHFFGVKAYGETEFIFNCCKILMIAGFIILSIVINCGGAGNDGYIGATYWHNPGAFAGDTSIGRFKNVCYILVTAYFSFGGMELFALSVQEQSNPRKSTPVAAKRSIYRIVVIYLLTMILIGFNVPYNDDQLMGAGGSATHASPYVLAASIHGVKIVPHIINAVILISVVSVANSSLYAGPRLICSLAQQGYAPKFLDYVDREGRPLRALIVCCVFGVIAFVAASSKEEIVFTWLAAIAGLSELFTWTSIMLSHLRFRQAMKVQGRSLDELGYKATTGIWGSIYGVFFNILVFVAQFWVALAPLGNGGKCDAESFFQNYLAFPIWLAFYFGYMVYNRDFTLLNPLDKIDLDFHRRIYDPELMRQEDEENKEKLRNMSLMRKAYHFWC

[1] = read-out: Percentage inhibition / Y294Δbap2
[2] = read-out: Percentage inhibition / Y294Δbap2Δgap1 / MP

Row | SMILES | inhibition at 200 µM (Gap1p; [1]) | inhibition at 200 µM (Bap2p) | other results
1 | N[C@@H](Cc1ccc(O)cc1)C(=O)O [Tyrosine] | 81% | – | –
2 | NC(=O)C[C@H](N)C(=O)O [Asparagine] | 37% | – | inhibition at 200 µM (Agp1p; [2]): 48%
3 | CC(CC(N)C(=O)O)C(F)(F)F (racemic) [DL-trifluoroleucine] | 42% | 48% | –
4 | N[C@@H](Cc1c[nH]c2ccccc12)C(=O)O [Tryptophan] | 86% | – | inhibition at 200 µM (Agp1p; read-out: Percentage inhibition / Y294Δgap1 / MA): 18%
5 | CC(C)C[C@H](N)C(=O)O [Leucine] | 75% | 72% | inhibition at 200 µM (Agp1p; [2]): 34%
6 | CC[C@H](C)[C@H](N)C(=O)O [Isoleucine] | – | – | inhibition at 200 µM (Gap1p; read-out: Percentage inhibition / Y294): 71%
7 | NC(=O)NCCC[C@H](N)C(=O)O [Citrulline] | 40% | – | –
8 | NC(Cc1cccs1)C(=O)O (racemic) [β-2-thienylalanine] | – | 67% | –
9 | CC(C)[C@H](N)C(=O)O [Valine] | 71% | – | –
